“And” between values parts separate entries of the source, which are not always exact repeats. Equal values may be shown once. Read-outs that look alike come from different tables or passages of the source. Each block holds one compound with its values, some of them ahead of it.
What was measured:
BRD4 = BRD4 (Homo sapiens (Human), UniProt O60885); assay: Differential Scanning Fluorimetry (DSF), stability of BRD4 upon ligand binding; conditions: for DSF ΔTm / IC50: Table 1; for IC50: estimated from DSF; for DSF: BRD4 ΔTm: 100 μM protein, 4 μM compound and 2% DMSO, Table 4
HEK293 = assay: Cellular IC50, HEK293; format: cell-based; conditions: Homo sapiens
BRD4-1 = BRD4-1 (Homo sapiens (Human), UniProt O60885); assay: Alpha Screen (Reaction Biology); format: binding; conditions: Reaction Biology data
BRDT-1 = BRDT-1 (Homo sapiens (Human), UniProt Q58F21); assay: Alpha Screen (Reaction Biology); format: binding; conditions: Reaction Biology data
UKE-1 = assay: Cellular IC50, UKE-1; format: cell-based; conditions: UKE1
MV4-11 AML cells [1] = assay: Cellular IC50, MV-4-11; format: cell-based; conditions: Homo sapiens
Experimental: Cellular activity of promising compounds is assessed using MM.1S and MV4-11 AML cells using c-Myc levels as biomarker (6-12 hr treatment) and antiproliferative activity (48-72 hr treatment) as described (Ciceri et al., Dual kinase-bromodomain inhibitors for rationally designed polypharmacology. Nat Chem Biol 2014).

BRD4-2 = BRD4-2 (Homo sapiens (Human), UniProt O60885); assay: Alpha Screen (Reaction Biology); format: binding; conditions: Reaction Biology data; value in parentheses
MM.1S cells = assay: Cellular IC50 (cell survival, MTT), MM.1S; format: cell-based
Text: Increased anti-proliferative effects are correlated with an early, strong reduction of both pSTAT2 and c-Myc levels. The inhibitors highlighted are the most promising equipotent dual BET-JAK2 inhibitors of this series.

c-Myc = conditions: literature; cited from earlier work
Solubility in PBS buffer = format: physicochemical
MV4-11 AML cells [2] = conditions: literature; read-out: IC50, inhibition of proliferation of MV4-11 AML cells; cited from earlier work
JAK2 = JAK2 (Homo sapiens (Human), UniProt O60674); assay: HotSpot Kinase assay (Reaction Biology); format: biochemical; conditions: Reaction Biology data
Sequence of JAK2 (O60674 whole entry): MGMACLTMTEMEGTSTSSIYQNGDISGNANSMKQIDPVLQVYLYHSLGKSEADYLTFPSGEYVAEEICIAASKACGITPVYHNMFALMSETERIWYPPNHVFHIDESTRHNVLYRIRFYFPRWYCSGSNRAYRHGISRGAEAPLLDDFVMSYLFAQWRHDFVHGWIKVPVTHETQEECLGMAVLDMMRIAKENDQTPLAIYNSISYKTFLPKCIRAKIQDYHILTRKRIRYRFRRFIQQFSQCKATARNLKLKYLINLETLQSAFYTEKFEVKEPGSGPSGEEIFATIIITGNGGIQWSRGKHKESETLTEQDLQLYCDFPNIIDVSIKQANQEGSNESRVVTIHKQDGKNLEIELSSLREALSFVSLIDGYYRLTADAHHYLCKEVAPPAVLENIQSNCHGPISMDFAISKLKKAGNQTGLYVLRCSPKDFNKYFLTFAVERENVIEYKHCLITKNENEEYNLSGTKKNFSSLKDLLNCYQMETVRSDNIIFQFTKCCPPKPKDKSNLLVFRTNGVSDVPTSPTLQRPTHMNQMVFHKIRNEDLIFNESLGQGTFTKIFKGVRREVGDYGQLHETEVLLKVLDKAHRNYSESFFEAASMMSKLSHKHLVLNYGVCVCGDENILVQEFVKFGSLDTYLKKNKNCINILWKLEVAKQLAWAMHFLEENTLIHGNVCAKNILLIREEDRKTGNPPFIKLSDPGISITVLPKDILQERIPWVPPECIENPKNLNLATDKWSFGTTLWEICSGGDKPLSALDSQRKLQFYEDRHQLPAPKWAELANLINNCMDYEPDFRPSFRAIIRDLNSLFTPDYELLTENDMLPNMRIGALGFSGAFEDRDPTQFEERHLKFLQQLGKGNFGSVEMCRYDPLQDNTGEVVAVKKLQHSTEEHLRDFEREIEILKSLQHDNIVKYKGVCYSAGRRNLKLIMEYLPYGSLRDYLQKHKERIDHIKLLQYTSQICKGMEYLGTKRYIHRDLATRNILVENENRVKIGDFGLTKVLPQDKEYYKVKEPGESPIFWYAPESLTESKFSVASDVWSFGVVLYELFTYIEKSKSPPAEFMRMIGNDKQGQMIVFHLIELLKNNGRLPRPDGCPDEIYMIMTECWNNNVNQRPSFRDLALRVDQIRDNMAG

Saos-2 = assay: Cellular IC50, Saos-2; format: cell-based; conditions: Homo sapiens
[3] = Homo sapiens, MM1.S, read-out: Cellular IC50 MM.1S

SMILES: Cc1nc(Nc2ccc(N3CCN(C)CC3)cc2)nc(Nc2cccc(S(=O)(=O)NC(C)C)c2)c1C
DSF ΔTm (BRD4): 5.3 ± 0.064 °C | IC50 (BRD4): 0.37 µM | IC50 (HEK293): 120 µM

SMILES: CCOC(=O)c1cnc(Nc2ccc(N3CCN(C)CC3)cc2)nc1Nc1cccc(S(=O)(=O)NC(C)(C)C)c1
IC50 (BRD4): > 20 µM

SMILES: CC[C@@H]1C(=O)N(C)c2cnc(Nc3ccc(C(=O)NC4CCN(C)CC4)cc3OC)nc2N1C1CCCC1 [BI2536]
downregulation of c-Myc in MM.1S cells (c-Myc): strong downregulation of c-Myc

SMILES: Cc1cnc(Nc2ccc(N3CCN(C)CC3)cc2)nc1Nc1cccc(S(=O)(=O)NC(C)(C)C)c1 [TG101209, reference compound]
DSF ΔTm (BRD4): 6.83 ± 0.129 °C and 7.55 ± 0.154 °C | downregulation of c-Myc in MM.1S cells (c-Myc): strong downregulation of c-Myc

SMILES: Cc1cnc(Nc2ccc(OCCN3CCCC3)cc2)nc1Nc1cccc(S(=O)(=O)NC(C)(C)C)c1 [TG101348]
downregulation of c-Myc in MM.1S cells (c-Myc): strong downregulation of c-Myc | IC50 (MV4-11 AML cells [2]): 0.079 µM

SMILES: Cc1cnc(Nc2ccc(N3CCN(C)CC3)cc2)nc1Nc1ccc(Cl)c(NS(=O)(=O)C(C)(C)C)c1 [drawing 146]
IC50 (MM.1S cells; read-out: MM.1S IC50): 0.142 µM

Second part, led by results:

DSF ΔTm (BRD4): 2.9 ± 0.084 °C | IC50 (BRD4): 2.3 µM
SMILES: CCCN(C)c1ccc(Nc2nc3c(c(Nc4cccc(S(N)(=O)=O)c4)n2)COC3)cc1

IC50 (BRD4-1): 0.00955 µM | IC50 (BRDT-1): 0.0225 µM | IC50 (UKE-1): 0.225 µM | IC50 (MV4-11 AML cells [1]): 0.0383 µM
SMILES: Cc1cnc(Nc2ccc(C(=O)NC3CCN(C)CC3)c(F)c2)nc1Nc1ccc(Cl)c(NS(=O)(=O)C(C)(C)C)c1

IC50 (BRD4-2): 0.0236 µM | IC50 (MV4-11 AML cells [1]): 0.0567 µM
SMILES: Cc1cnc(Nc2ccc(N3CCN(C)CC3)cc2)nc1Nc1cccc(NS(=O)(=O)C(C)(C)C)c1
IC50 (MM.1S cells; [3]): 0.399 µM

Solubility (Solubility in PBS buffer; in 1 mL PBS buffer (15% HPCD)): > 14.4 mg/mL | Solubility (Solubility in PBS buffer; in 1 mL PBS buffer (~9.3% DMSO)): 0.416 mg
SMILES: Cc1cnc(Nc2ccc(N3CCN(C)CC3)cc2)nc1Nc1ccc(Cl)c(NS(=O)(=O)C(C)(C)C)c1 [SG3-014B2.MSA]

DSF ΔTm (BRD4): 11.2 ± 0.15 °C
SMILES: Cc1cnc(Nc2ccc(N3CCN(C)CC3)c(F)c2)nc1Nc1cccc(NS(=O)(=O)C(C)(C)C)c1 [drawing 167]
IC50 (MM.1S cells; read-out: MM.1S IC50): 0.146 µM

DSF ΔTm (BRD4): 12.6 ± 0.069 °C
SMILES: Cc1cnc(Nc2ccc(N3CCN(C)CC3)c(F)c2)nc1Nc1ccc(Cl)c(NS(=O)(=O)C(C)(C)C)c1 [drawing 168]
IC50 (MM.1S cells; read-out: MM.1S IC50): 0.064 µM and 0.066 µM

DSF: BRD4 ΔTm (BRD4): 12.6 ± 0.06 °C | IC50 (JAK2): 0.00336 µM | IC50 (Saos-2): 0.32 µM | IC50 (UKE-1): 0.294 µM | IC50 (MV4-11 AML cells [1]): 0.0532 µM
SMILES: Cc1cnc(Nc2ccc(N3CCN(C)CC3)c(F)c2)nc1Nc1ccc(Cl)c(NS(=O)(=O)C(C)(C)C)c1 [drawing 230]
IC50 (MM.1S cells; [3]): 0.066 µM

DSF: BRD4 ΔTm (BRD4): 11.2 ± 0.15 °C | IC50 (Saos-2): 0.133 µM | IC50 (UKE-1): 0.2 µM | IC50 (MV4-11 AML cells [1]): 0.0268 µM
SMILES: Cc1cnc(Nc2ccc(N3CCN(C)CC3)c(F)c2)nc1Nc1cccc(NS(=O)(=O)C(C)(C)C)c1 [drawing 231]
IC50 (MM.1S cells; [3]): 0.146 µM

IC50 (BRD4-1): 0.025 µM | IC50 (BRD4-2): 0.0273 µM
SMILES: Cc1cnc(Nc2ccc(N3CCN(C)CC3)cc2)nc1Nc1ccc(Cl)c(NS(=O)(=O)C(C)(C)C)c1 [drawing 232]
IC50 (MM.1S cells; [3]): 0.142 µM
